Values of other authors, collected in patent publication US20080038219A1, “Novel Composition for a Topical Skin Treatment Base and Medicated Applications Thereof” (CALGENEX CORPORATION, priority 2006, published 2008).

System: mild-to-moderate acne
Conditions: versus tretinoin 0.05%, benzoyl peroxide 5%, topical erythromycin 2%

O=C(O)CCCCCCCC(=O)O [azelaic acid]
efficacy in treatment of mild-to-moderate acne: efficacy comparable
